Read-outs that look alike come from different tables or passages of the source.
Experiments:
[1] = tested on: primary cerebellar granule neurons (CGNs); test: Neuroprotection on glutamate-mediated excitotoxicity in CGNs (MTT); conditions: 100 μM glutamate; for reversal of glutamate-mediated excitotoxicity: CGNs
[2] = PAMPA-BBB permeability assay; conditions: for Papp: PAMPA, PAMPA-BBB; for CNS prediction: predicted from PAMPA Pe
hMAO-A = target: T1, hMAO-A (Homo sapiens, UniProt P21397); test: hMAO-A inhibitory activity (kynuramine, spectrophotometric); assay type: biochemical; conditions: for inhibition at 10 µM: read-out: hMAO-A inhibition at the highest concentration tested
T1 sequence (P21397 1-527): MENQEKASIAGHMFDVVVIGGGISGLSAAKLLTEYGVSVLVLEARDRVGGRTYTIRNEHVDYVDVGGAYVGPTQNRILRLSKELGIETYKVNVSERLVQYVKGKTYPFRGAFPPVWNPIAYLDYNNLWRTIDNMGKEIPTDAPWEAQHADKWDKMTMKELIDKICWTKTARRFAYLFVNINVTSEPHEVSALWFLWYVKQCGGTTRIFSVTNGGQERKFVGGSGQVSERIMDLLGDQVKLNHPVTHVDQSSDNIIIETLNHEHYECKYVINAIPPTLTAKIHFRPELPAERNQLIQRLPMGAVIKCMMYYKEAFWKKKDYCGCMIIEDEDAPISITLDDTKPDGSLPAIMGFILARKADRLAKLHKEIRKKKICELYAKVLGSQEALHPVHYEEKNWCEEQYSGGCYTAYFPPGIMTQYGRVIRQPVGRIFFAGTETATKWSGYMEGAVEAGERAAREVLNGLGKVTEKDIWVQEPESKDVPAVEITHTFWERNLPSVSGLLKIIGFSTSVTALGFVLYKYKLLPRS

CK-1δ [3] = target: T2, CK-1δ (Homo sapiens, UniProt P48730); test: CK-1δ activity assay (KinaseGlo luminescence); assay type: biochemical; conditions: read-out: residual CK-1δ activity (%)
T2 construct: amino acids 1–294; GST (N); purchased Merck Millipore
T2 sequence (P48730 1-294): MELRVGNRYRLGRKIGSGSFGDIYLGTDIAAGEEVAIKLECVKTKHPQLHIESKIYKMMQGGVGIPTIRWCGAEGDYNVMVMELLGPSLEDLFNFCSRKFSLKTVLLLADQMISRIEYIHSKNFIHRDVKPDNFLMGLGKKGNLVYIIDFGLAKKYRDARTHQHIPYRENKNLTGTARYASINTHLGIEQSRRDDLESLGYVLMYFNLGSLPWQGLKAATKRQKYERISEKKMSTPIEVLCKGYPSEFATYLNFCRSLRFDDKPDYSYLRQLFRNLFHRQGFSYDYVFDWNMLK
Description: CK-1δ activity assay. Compounds were evaluated towards CK-1δ (Merck Millipore, recombinant human, amino acids 1–294, with N-terminal GST-tagged) with the KinaseGloR luminescence assay (Promega) […]
following procedures reported in literature.10 In detail, luminescent assays were performed in black 96-well plates, using a buffer composed of: 50 mM HEPES (pH 7.5), 1 mM EDTA, 1 mM EGTA, and 15 mM […]
solution was used as a negative control. In a typical assay, 10 μL of inhibitor solution (obtained using a 10 mM DMSO solution diluted in assay buffer to 160 μM that corresponds to a final concentration of 40 μM in the assay) and 10 μL (16 ng of CK1δ) of enzyme solution were added to the well, followed by 20 μL of assay buffer containing 0.1% casein substrate and 4 μM ATP. The final DMSO concentration in the reaction […]
After 60 min of incubation at 30 °C for CK1δ the enzymatic reactions were stopped with 40 μL of Kinase-Glo reagent (Promega). Luminescence signal (relative light unit,RLU) was recorded after 10 min at 25 °C using Tecan Infinite M100. The activity is proportional to the difference of the total and consumed ATP. The residual activities of the enzyme were calculated on the basis of maximal activities measured in the absence of inhibitor. Data were analyzed using Excel and percentages of enzyme residual activity are reported as means ± standard deviation of two independent experiments performed in […]

LPS5 lymphoblasts [4] = test: Antioxidant activity after menadione in ALS patient lymphoblasts; assay type: cell-based, human; conditions: for rescue of cell viability after menadione: LPS5, 10 μM menadione 3 h, 10 µM compound pretreatment 21 h
[5] = tested on: Bcl-2 expression in N9 microglial cells; test: Antiapoptotic effects in LPS-insulted N9 microglia, Bcl-2 Western blot; assay type: cell-based
LH5 lymphoblasts = test: Antioxidant activity after menadione in healthy lymphoblasts; assay type: cell-based, human; conditions: LH5, 10 μM menadione 3 h, 10 µM compound pretreatment 21 h
hMAO-B = target: T3, hMAO-B (Homo sapiens, UniProt P27338); test: hMAO-B inhibitory activity (kynuramine, spectrophotometric); assay type: biochemical; conditions: for SI: hMAO-B selectivity index = IC50 (hMAO-A)/IC50 (hMAO-B): bounds assume IC50 = 10 µM for inactive isoform; for inhibition at 10 µM: read-out: hMAO-B inhibition at the highest concentration tested
T3 sequence (P27338 1-520): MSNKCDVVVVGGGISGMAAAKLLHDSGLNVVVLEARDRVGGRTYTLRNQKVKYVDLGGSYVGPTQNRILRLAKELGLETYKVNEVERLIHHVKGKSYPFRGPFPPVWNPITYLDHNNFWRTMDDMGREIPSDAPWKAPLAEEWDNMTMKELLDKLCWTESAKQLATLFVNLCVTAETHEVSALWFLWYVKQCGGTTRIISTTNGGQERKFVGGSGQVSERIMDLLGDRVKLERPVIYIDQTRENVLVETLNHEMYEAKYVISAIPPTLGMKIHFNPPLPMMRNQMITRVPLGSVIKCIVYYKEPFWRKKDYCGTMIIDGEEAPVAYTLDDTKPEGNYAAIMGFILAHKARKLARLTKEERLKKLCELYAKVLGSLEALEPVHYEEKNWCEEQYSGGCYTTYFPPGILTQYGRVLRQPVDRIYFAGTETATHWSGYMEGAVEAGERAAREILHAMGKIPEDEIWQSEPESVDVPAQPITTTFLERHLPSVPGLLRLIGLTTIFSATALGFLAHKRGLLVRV

[6] = Antioxidant activity after menadione in ALS patient lymphoblasts; assay type: cell-based, human; conditions: human, LPS5 lymphoblast-derived cell line; LPS5, 50 μM menadione; read-out: cell viability after menadione insult
[7] = Antioxidant activity after menadione in healthy lymphoblasts; assay type: cell-based, human; conditions: human, LH5 lymphoblast-derived cell line, read-out: cell viability after menadione insult
[8] = tested on: iNOS expression in N9 microglial cells; test: Immunomodulation in LPS-insulted N9 microglia, iNOS Western blot; assay type: cell-based; conditions: LPS-insulted N9, 10 μM
CK-1δ [9] = target: T2, CK-1δ; conditions: cited from earlier work
LPS5 lymphoblasts [10] = test: Cell viability in mutSOD1 lymphoblasts (resazurin reduction); assay type: cell-based, human; conditions: LPS5 (mutSOD1), 1, 10, 100 µM, 24 h
[11] = pH 7.4, Pe, in vitro permeability coefficient, PBS pH 7.4, Pe ± SEM
[12] = Table S3, mean ± SD, highest concentration 10 µM, read-out: IC50 hMAO-A
[13] = Table S3, mean ± SD, highest concentration 10 µM, read-out: IC50 hMAO-B
[14] = pH 7.4, permeability coefficient (Pe)

Structure (SMILES)	Papp [2, 11] [×10⁻⁶ cm/s]	CNS prediction [2]	IC50 (hMAO-A; [12]) [µM]	remaining activity at 40 µM (CK-1δ [3]) [%]	IC50 (hMAO-B; [13]) [µM]	inhibition at 10 µM (hMAO-A) [%]	inhibition at 10 µM (hMAO-B) [%]	further results
N[C@@H](CCC(=O)O)C(=O)O [glutamate, reference compound]								viability of CGNs exposed to glutamate ([1]; compared with the control): 80%
CO/N=C(\C(=O)N[C@@H]1C(=O)N2C(C(=O)O)=C(COC(N)=O)CS[C@H]12)c1ccco1 [cefuroxime, reference compound]	0.62 ± 0.16	CNS - (CNS -: low BBB permeation predicted, Pe (×10-6 cm s-1) < 2.0)						
C#CCN(C)Cc1ccc2nc(N)sc2c1 [Compound 5]	22.7 ± 0.6	CNS + (CNS +: high BBB permeation predicted, Pe (×10-6 cm s-1) > 4.0)	2.73 ± 0.39	83.7	9.31 ± 1.57			IC50 (hMAO-A; read-out: hMAO-A IC50): 2.7 ± 0.4 µM; rescue of cell viability after menadione (LPS5 lymphoblasts [4]): no significant effects; Bcl-2 expression ([5]; LPS-insulted N9, 10 μM): a trend of recovery in Bcl-2 expression; reversal of glutamate-mediated excitotoxicity ([1]; compound 1, 10, 25 μM): no significant changes; rescue of cell viability after menadione (LH5 lymphoblasts): a better restorative activity trend than the combination; SI: hMAO-B selectivity index = IC50 (hMAO-A)/IC50 (hMAO-B) (hMAO-B): 0.29; IC50 (hMAO-B; read-out: hMAO-B IC50): 9.3 ± 1.6 µM
CC1=CC(=O)c2ccccc2C1=O [menadione, 2-methyl-1,4-naphthoquinone, reference compound]								viability at 3 h, 50 µM [6]: ~80%; cytotoxic effect of menadione (LPS5 lymphoblasts [4]; LPS5, 10 μM menadione): unable to cause a cytotoxic effect; viability at 3 h, 10 µM ([7]; LH5, 10 μM menadione): 80%; viability at 3 h, 50 µM ([7]; LH5, 50 μM menadione): ~40%
C#CCN(CC#C)Cc1ccc2nc(N)sc2c1 [Compound 3]	24.9 ± 0.25	CNS + (CNS +: high BBB permeation predicted, Pe (×10-6 cm s-1) > 4.0)	> 10	64.4	> 10	< 50	< 50	melting point: 148 °C
C#CCN[C@@H]1CCc2ccccc21 [Compound 2, rasagiline, reference compound]								iNOS expression [8]: moderate decrease of iNOS expression; Bcl-2 expression ([5]; LPS-insulted N9, 1 or 10 μM): increased the level of the anti-apoptotic Bcl-2 marker
C#CCNc1nc2c(s1)CC(N(CC#C)C(C)=O)CC2 (stereo not shown) [Compound 8]	4.6 ± 0.6	CNS + (CNS +: high BBB permeation predicted, Pe (×10-6 cm s-1) > 4.0)	> 10		> 10	< 50	< 50	Papp [2, 14]: 4.6 ± 0.6 ×10⁻⁶ cm/s
C#CCNC1CCc2nc(N)sc2C1 (stereo not shown) [Compound 7]	7.7 ± 1	CNS + (CNS +: high BBB permeation predicted, Pe (×10-6 cm s-1) > 4.0)	> 10		> 10	< 50	< 50	Papp [2, 14]: 7.7 ± 1 ×10⁻⁶ cm/s
CC[C@H](CO)Nc1nc(NCc2ccc(-c3ccccn3)cc2)c2ncn(C(C)C)c2n1 [CR8]								IC50 (CK-1δ [9]; read-out: IC50 (positive control)): 0.4 µM
Nc1nc2ccc(OC(F)(F)F)cc2s1 [Compound 1, riluzole, reference compound]			8.71 ± 0.81		> 10			IC50 (CK-1δ [9]; read-out: IC50 against CK1δ): 16.1 µM; IC50 (hMAO-A; read-out: hMAO-A IC50): 8.7 µM; iNOS expression [8]: moderate decrease of iNOS expression; Bcl-2 expression ([5]; LPS-insulted N9, 1 or 10 μM): increased the level of the anti-apoptotic Bcl-2 marker; rescue of cell viability after menadione (LH5 lymphoblasts): a viability recovery trend
C#CCNCc1ccc2nc(N)sc2c1 [Compound 4]	9.3 ± 0.1	CNS + (CNS +: high BBB permeation predicted, Pe (×10-6 cm s-1) > 4.0)	> 10	69	> 10	< 50	< 50	
C#CCNc1nc2ccc(N(CC#C)C(C)=O)cc2s1 [Compound 6]	10.2 ± 0.25	CNS + (CNS +: high BBB permeation predicted, Pe (×10-6 cm s-1) > 4.0)	6.88 ± 0.46	85.2	> 10			IC50 (hMAO-A; read-out: hMAO-A IC50): 6.9 µM; reduction of iNOS level [8]: about 60%; rescue of cell viability after menadione (LPS5 lymphoblasts [4]): no significant effects; Bcl-2 expression ([5]; LPS-insulted N9, 10 μM): not evident; Bcl-2 expression ([5]; LPS-insulted N9, 1 or 10 μM): no increase in the level of the Bcl-2 anti-apoptotic marker; reversal of glutamate-mediated excitotoxicity ([1]; compound at 1 and 10 μM): restored viability; rescue of cell viability after menadione (LH5 lymphoblasts): a better restorative activity trend than the combination; Papp [2, 14]: 10.1 ± 0.2 ×10⁻⁶ cm/s; SI: hMAO-B selectivity index = IC50 (hMAO-A)/IC50 (hMAO-B) (hMAO-B): < 0.69; cytotoxic effects, cell viability (LPS5 lymphoblasts [10]): no toxicity
